Source: patent publication US6428817B1, “Companion animal therapeutic treat” (priority 2001, dated 2002)

How the values were obtained:
[1] = test system: bovine nasal cartilage explants; assay: Proteoglycan degradation in bovine nasal cartilage explants, basal and TNF alpha stimulated; assay for sulfated glycosaminoglycans; type: cell-based; conditions: EGCg 22 μM, 5 days culture, with or without recombinant human tumor necrosis factor alpha 3 nM
Protocol: See, Haqqi, et al., Proc. Natl. Acad. Sci., USA, 96:4524-29 (1999). […] Id. In an experiment, purified EGCg, from Sigma Chemical Supply, St. Louis, Mo., was placed with bovine nasal cartilage explants at a concentration of22 μM. This mixture was cultured for 5 days in the presence or absence of the pro-inflammatory cytokine, recombinant human tumor necrosis factor alpha at 3 nM. The inhibition of both the basal and stimulated protcoglycan degradation by EGCg was measured using a calorimetric assay for sulfated glycosaminoglycans. See, Farndale, et al., Biochem. Biophys. Acta, 4:883 (1986).

cartilage degradation = conditions: mammals; cited from earlier work

## epigallocatechin-3-gallate [EGCg]
[1]
  inhibition of basal and stimulated proteoglycan degradation (cartilage breakdown): potent inhibitor of cartilage breakdown
Cartilage degradation
  inhibition of cartilage degradation: inhibitor of cartilage degradation
